The subject of one series is rabbits. Nature of the series: Transcallosal stimulation induced potential (TSIP). It counts as in vivo. As to conditions: for effect on TSIP components (in words): 25-300 mg/kg.
A short description of series [1]: Acute toxicity, single intraperitoneal injection in male mice. In kind it is in vivo. As to conditions: male, white outbred, mouse, in vivo, ip, male mice 18-24 g; single i.p. On the procedure: (§1) Tables 2, 2.1 and 2.2 present the results of acute toxicity studies of the Compounds with active substance content in at least white outbred male mice (body weight 18-24 g) and white outbred rats 30-35 days of age, of both sexes with a single dose. Calculation of toxic doses was made using the Wilcoxon and Litchfield method. Observations were made over 24 hours and 14 days after a single dose.
(§2) LD50 in rat pups after intragastric administration was not found. Intragastric administration to rat pups of doses of more than 1000 mg/kg is technically impossible due to the small volume of the stomach (Table 2.2).

A further series relates to rats. In words: Acute toxicity, single intragastric administration in immature rats. In kind it is in vivo. As to conditions: single intragastric 800 mg/kg. How it is done:
as §1, §2

In series [2] the test system is mice. Nature of the series: Acute toxicity, single intraperitoneal injection in male mice. The conditions noted are these: male mice 18-24 g; single i.p. In kind it is in vivo. On the procedure: as §1, §2
Series [3] relates to mice. In words: Cross maze exploratory behavior, HEF and LEF mice. As to conditions: i.p. once a day 5 days, Compounds 1 and 4 100 mg/kg, Piracetam 200 mg/kg. In kind it is in vivo.
The test system of series [4] is mice. The conditions noted are these: mice; product of SU No 797219; cited from earlier work.
For series [5], the system named is mice. Nature of the series: Open field test. In kind it is in vivo. On the procedure:
Study of the effect of Phenotropil (100, 200, 300 mg/kg) on motor activity and exploratory behavior by the open field test on mice (16-24 g) in comparison with olanzapine (1 mg/kg) is shown in Tables 5-5.4. Olanzapine at higher doses has sedative activity, so for comparison with Phenotropil, the drug was used only at a dose of 1 mg/kg. The drugs and distilled water to control groups were injected intraperitoneally 40 minutes prior to the study. […] This indicates the ability of the drug to reversibility, unlike olanzapine.

Series [6] has as its system mice. Nature of the series: Apomorphine verticalization (positive symptoms of schizophrenia). It counts as in vivo. The conditions noted are these: mice, apomorphine 2 mg/kg s.c. How it is done:
(§3) Studies have been conducted on white outbred male mice (18-24 g), in comparison with the olanzapine (Zyprexa) with intraperitoneal injection.
In the model of positive symptoms of schizophrenia associated with hyperactivation of the dopamine systems, which allows to identify the ability of substances to block the dopaminergic transmission in the mesolimbic system of the brain, Phenotropil (100, 200, and 300 mg/kg) reduced the apomorphine-induced (2 mg/kg subcutaneously) verticalization intensity scores (Table 4) by 45%, by 2.0 and 2.6 times, respectively.

In series [7] the test system is mice. In words: Tremor caused by arecoline. It counts as in vivo.
Text: as §3

Where [8] appears, read: Piracetam 300-500, Pyritinol 50-150, Phenotropil 25-300 mg/kg.

The values below come from patent US20140315972A1, “RS)-2-(2-oxo-4-phenylpyrrolidin-1-yl)acetamide compound having modulatory activity with a commensurate effect, pharmaceutical substance (variants) and its application, composition (variants) thereof” (priority 2011, published 2014).

Read-outs that look alike come from different tables or passages of the source. Marks after values point to notes of the source that are not given here.

As to `NC(=O)CN1CC(c2ccccc2)CC1=O` (racemic) [Compound 2, (RS)-2-(2-oxo-4-phenylpyrrolidin-1-yl)acetamide], the “effect on TSIP components (in words)” value in the series with rabbits was “less pronounced than that of Compounds 1 and 3”. Besides, in the series on rabbits (setting [8]), the “TSIP P1 + N1 amplitude” value is given as “± (biphasic effect, less than 50% but not less than 20%)”; the “TSIP component N1 amplitude” value was “± (biphasic effect, less than 50% but not less than 20%)”; the “TSIP component P1 amplitude” value is “± (biphasic effect, less than 50% but not less than 20%)”; the “TSIP component P2 amplitude” value is “± (biphasic effect, less than 50% but not less than 20%)”. In [1], this molecule came in with an LD50 at 14 days of 1000 mg/kg.
Turning to `NC(=O)CN1CC(c2ccccc2)CC1=O` (racemic) [Compound 3, (RS)-2-(2-oxo-4-phenylpyrrolidin-1-yl)acetamide], in the series on rats (rats 30-35 days), the Dead/total number is given as 0/10. Besides, the “% of dead rat pups” value in the series on rats was determined as 0%. Besides, the LD50 in the series with mice [2] is recorded as 1050 (984.6-1115.3) mg/kg.
Regarding `NC(=O)CN1CC(c2ccccc2)CC1=O` (racemic) [Compound 4, (RS)-2-(2-oxo-4-phenylpyrrolidin-1-yl)acetamide], the “effect on TSIP components (in words)” value with rabbits is listed as “no significant difference from the saline treated control”. For the same molecule, the LD50 in the series with mice [2] was found to be 904 mg/kg. Further, the “Kt (trigger transmission coefficient)” value in the series with mice [3] (HEF mice) is listed as 3.9 ± 0.45; with mice [3] (LEF mice), 3.9 ± 0.4; in the series with mice [3] (population as a whole), 3.9 ± 0.45. The “Number of compartment explorations” value is recorded as 6.5 ± 0.7 // in the series with mice [3] (HEF mice), 7.0 ± 0.6 // in the series on mice [3] (LEF mice) and 6.7 ± 0.7 // in the series with mice [3] (population as a whole). Further, the Number of surveillances in the series on mice [3] (HEF mice) was determined as 1.6 ± 0.2; in the series on mice [3] (LEF mice), 1.8 ± 0.2; in the series with mice [3] (population as a whole) it was 1.7 ± 0.2.
`NC(=O)CN1CC(c2ccccc2)CC1=O` (stereo not drawn) [N-carbamoylmethyl-4-phenyl-2-pyrrolidone, reference compound]: the LD50 with mice [4] is reported as 831 mg/kg.
With `Cc1cc2c(s1)Nc1ccccc1N=C2N1CCN(C)CC1` [Olanzapine, reference compound], in the series on mice [5] (1 mg/kg), the “effect on number of explorations compared to the control” value is recorded as “no effect”; the “increase of number of washes during 1 and 2 minutes” value came out at 150%; the “increase of number of washes in total” value came out at 200%; the “reduction of number of rearings” value is recorded as 47%. Moreover, in the series with mice [5] (1 mg/kg), the “reduction of number of visits to the center, total index” value is recorded as 39% and the “reduction of overall run distance” value is recorded as 36%. Further, in the series on mice [5] (mice, 1 mg/kg i.p.), the “Distance covered during 1st min (horizontal motor activity)” value came to 8.3 ± 1.6, the “Distance during 2nd min (horizontal motor activity)” value was determined as 8.8 ± 0.8, the “Distance during 3rd min (horizontal motor activity)” value worked out at 10.2 ± 0.9 and the “Explorations during 2nd min” value was 0.5 ± 0.2^. Further, in the series with mice [5] (mice, 1 mg/kg i.p.), the “Explorations during 3rd min” value is on record as 1.0 ± 0.3, the “Number of explorations (holes) during 1st min” value is recorded as 0.7 ± 0.2^, the “Number of washings during 1st min” value came to 0.5 ± 0.2 and the “Total distance at 3 min (horizontal motor activity)” value was 27.3 ± 2.6. Besides, in the series on mice [5] (mice, 1 mg/kg i.p.), the “Total number of explorations at 3 min” value is 2.2 ± 0.4^, the “Total number of visits to the center at 3 min” value was determined as 0.7 ± 0.3, the “Total number of washings at 3 min” value turned out to be 1.2 ± 0.4 and the “Visits to the center during 1st min” value was 0 ± 0. Also, in the series with mice [5] (mice, 1 mg/kg i.p.), the “Visits to the center during 2nd min” value was found to be 0.5 ± 0.2, the “Visits to the center during 3rd min” value came out at 0.2 ± 0.2, the “Washings during 2nd min” value was 0.5 ± 0.2 and the “Washings during 3rd min” value was 0.2 ± 0.2. Moreover, in the series on mice [5] (mice, 1 mg/kg i.p.), the “vertical motor activity, 1st min (Distance covered)” value amounted to 0.8 ± 0.3; the “vertical motor activity, 2nd min” value is 0.3 ± 0.2; the “vertical motor activity, 3rd min” value turned out to be 0.5 ± 0.2; the “vertical motor activity, total at 3 min” value was 1.7 ± 0.4. For the same molecule, the “Intensity of verticalization in points” value in the series on mice [6] (1.0 mg/kg i.p.) turned out to be 36 ± 8.7 points. In addition, in the series on mice [6] (10 mg/kg i.p.), the “Intensity of verticalization in points” value is listed as 16.4 ± 8.4*^ points. Also, the “reduction of duration of tremor” value in the series on mice [7] (1 mg/kg) was determined as 57%. Also, the Duration of tremor in the series with mice [7] (mice, arecoline 25 mg/kg, 1.0 mg/kg) stood at 178 ± 28 s.
